What is called EC50 is the midpoint of the concentration-response curve. Lower therefore signals higher potency in that assay.

The structures appear in SMILES notation.

EC50 data for one molecule are collected here from ChEMBL document CHEMBL5725943, “Isoxazole derivatives as FXR agonists and methods of use therof” (2018).

This experiment deals with T1, Bile acid receptor (Homo sapiens, UniProt Q96RI1).
T1 sequence (Q96RI1 whole entry): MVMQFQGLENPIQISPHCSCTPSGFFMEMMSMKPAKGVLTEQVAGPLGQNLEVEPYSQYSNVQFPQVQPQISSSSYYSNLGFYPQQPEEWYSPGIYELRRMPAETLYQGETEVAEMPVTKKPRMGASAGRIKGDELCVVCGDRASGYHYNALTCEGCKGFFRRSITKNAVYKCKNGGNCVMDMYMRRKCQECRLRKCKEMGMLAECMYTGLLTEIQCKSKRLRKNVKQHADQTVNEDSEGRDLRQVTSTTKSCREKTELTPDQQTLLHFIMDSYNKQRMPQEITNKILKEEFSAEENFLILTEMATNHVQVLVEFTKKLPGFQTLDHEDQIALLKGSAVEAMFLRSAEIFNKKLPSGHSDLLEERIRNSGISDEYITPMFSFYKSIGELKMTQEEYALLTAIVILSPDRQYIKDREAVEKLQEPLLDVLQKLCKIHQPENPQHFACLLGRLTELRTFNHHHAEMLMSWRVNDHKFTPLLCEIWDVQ
The experiment in a line: FXR Reporter Assay kit purchased from Indigo Bioscience (Catalogue number: IB00601) to determine the potency and efficacy of compound developed by Enanta that can induce FXR activation. The principle application of this reporter assay system is to quantify functional activity of human FXR. The assay utilizes non-human mammalian cells, CHO (Chinese hamster ovary) cells engineered to express human NR1H4 protein (referred to as FXR). Reporter cells also incorporate the cDNA encoding beetle luciferase which catalyzes the substrates and yields photon emission. Luminescence intensity of the reaction is quantified using a plate-reading luminometer, Envision. Reporter Cells include the luciferase reporter gene functionally linked to an FXR responsive promoter. Thus, quantifying changes in luciferase expression in the treated reporter cells provides a sensitive surrogate measure of the changes in FXR activity. […] The assay is according to the manufacturer's instructions. In brief, the assay was performed in white, 96 well plates using final volume of 100 μl containing cells with different doses of compounds. Retrieve Reporter Cells from −80° C. storage. Perform a rapid thaw of the frozen cells by transferring a 10 ml volume of 37° C. cell recovery medium into the tube of frozen cells. Recap the tube of Reporter Cells and immediately place it in a 37° C. water bath for 5-10 minutes. […]. The experiment is classed as cell-based.

In turn, `CN(Cc1ccc(C(=O)NS(=O)(=O)N(C)C)cc1)c1ccc(OCc2c(-c3c(Cl)cccc3Cl)noc2C2CC2)nc1C(F)(F)F` gave an EC50 of under 100 nM.
